Measured values published in patent US10889551B2, “Biemamides and related scaffolds as inhibitors of transforming growth factor-beta signaling” (Wisconsin Alumni Research Foundation, priority 2018, dated 2021).

How the values were obtained:
[1] = system: TGF-β signaling; test: MLEC luciferase assay (TGF-β activated luciferase, Bright-Glo); format: cell-based, mink; conditions: purified compounds, 24 hours with TGF-β, read-out: IC50, inhibition of TGF-β (MLEC-based TGF-β inhibition assay)
Experimental: A total of 3840 fractions, plated on 12 384-well plates, were assayed in a high throughput screen at 10 μM final concentration. For purposes of concentration calculations we set the average molecular weight of each compound in the library at 500 Da. Each fraction had its different mass, therefore different volumes were used for each well in the screening. Z′ for the plates were between 0.53 and 0.45. Initial hits were identified as compounds that inhibited the Bright-Glo signal (see below MLEC assay) by more than 84%. Using this criteria, we identified 48 compounds of interest. The 48 initial hits were then re-screened in a 10 point dose response curve in duplicate. The compounds were assayed for both luciferase inhibition and toxicity using CellTiter-Glo (Promega). Of the 48 compounds identified in the HTS assay, 19 inhibited TGF-β activated luciferase activity without inducing mink lung cell toxicity. MLEC were plated into 384-well plates at a density of 5000 cells/well using Micro-flow (Biotek) multi well reagent dispenser and incubated overnight at 37° C. in the CO2 incubator. 1 μM control SB431542 or 10 μM of compounds 1-5 were added to the wells using the ECHO 550 (Labcyte), then added 10 μL media with […] TGF-β using Micro-flow and incubated for 24 hours at 37° C. 25 μL Bright-Glo (Promega) was added using Micro-flow, and agitated for 4 minutes. The Enspire (Perkin Elmer) plate reader was used to measure the TGF-β response in each well. The luciferase activity was reported as relative light units (RLU), and the readout of each tested fraction was then normalized against negative controls. Dose-response TGF-β data and cytotoxicity assays using fibroblasts were employed to more rigorously evaluate the 48 initial hits. […] Chemical analysis of the secondary metabolites in the active wells/extract fractions of WMMA2266 led to the discovery of five pyrimidinedione derivatives, biemamides A-E (1-5).

[2] = system: C. elegans; test: C. elegans assay (development and body length); format: in vivo; conditions: three concentrations spanning 1 μM→100 μM
Experimental: Synchronized cultures of C. elegans were obtained using the following procedure: a mixed population of worms containing many gravid adults was washed off of two 10 cm NGM plates using distilled water. C. elegans were pelleted at 1000 g in a 15 mL conical tube and the supernatant was discarded. A mix of 3 mL distilled water, 1 mL bleach, and 1 mL 1 M NaOH was added. The tube was inverted for several minutes until it could be observed that the gravid adults had released their eggs. The eggs were pelleted at 1000 g, washed three times with distilled water and suspended in 10 mL of M9 (3.0 g KH2PO4, 6.0 g Na2HPO4, 0.5 g NaCl, 1.0 g NH4Cl into 1 L distilled water). The egg suspension was rotated overnight in a 50 mL conical tube during which the embryos hatched and arrested at the L1 stage. The C. elegans were washed twice and diluted with M9 to reach an approximate concentration of 20 worms/10 μL. Each well in a 96-well plate was prepared by adding 10 μL worm suspension, 0.5 μg OP50 E. coli, 1 μL DMSO (control) or 1 μL DMSO with compounds, and brought to a final volume of 100 μL with M9 plus cholesterol (5 μg/mL). The plates were incubated in a humidified box at 23° C. for 72 hours. To immobilize worms to measure body length the worms were killed by immersing the 96-well plate in a 70° C. water bath for several minutes. Each experiment was performed in triplicate within each plate. […]

[3] = system: NMuMG epithelial cells; test: TGF-β induced EMT in NMuMG cell line (imaging assay); format: cell-based, mouse; conditions: 50 pM TGF-β, 72 h
Experimental: Mouse mammary epithelial cell line NMuMG was purchased from American Tissue Culture Collection (ATCC, Manassas, Va.), and NMuMG were cultured as per ATCC recommendations. Imaging assay: Cells were plated in glass bottomed 96 well imaging plates, at a density of 1,000 cells per well, and were allowed to attach overnight. Cells (with exception of 3 control wells) were treated with 50 pm TGF-β. Along with the TGF-β test compounds 1-5 were added in at various doses, and a set of wells was treated with a known TGF-β inhibitor SB431542 at 1 μM.
In the absence of TGF-β, NMuMG cells form an epithelial shape; incubation with 50 pM TGF-β for 72 h induces a more fibroblast-like, spindle shaped morphology indicative of mesenchymal cells (FIGS. 3A-3D). […] Nine concentrations (160-0.625 nM) of compounds 1-5 were tested for their ability to impact TGF-β signaling in NMuMG cells.

| Molecule | IC50 [1] [nM] | C. elegans size [2] | inhibition of TGF-β-induced EMT (cell morphology), positive control ([3]; 1 μM) | inhibition of TGF-β-induced EMT (cell morphology) ([3]; nine concentrations 160-0.625 nM (FIG. 3C: 160 nM compound 1)) |
| --- | --- | --- | --- | --- |
| NC(=O)c1ccc(-c2nc(-c3ccc4c(c3)OCO4)c(-c3ccccn3)[nH]2)cc1 [SB431542, reference compound] | 411 | did not alter C. elegans size | blocked TGF-β-induced transition of the NMuMG epithelial cells into mesenchymal cells |  |
| Biemamide A [Compound 1] | 51.5 |  |  | cells maintained their epithelial phenotype |
| Biemamide B [Compound 2] | 18.7 |  |  |  |
| Biemamide C [Compound 3] | 51.5 |  |  |  |
| Biemamide D [Compound 4] | 102 |  |  |  |
| Biemamide E [Compound 5] | 83.2 |  |  |  |
